Numbers after ± are expanded uncertainties.
Assay: molar heat capacity at constant pressure
Details: 101.33 kPa

BrC12CC3CC(CC(C3)C1)C2 [1-bromotricyclo[3.3.1.1(3,7)]decane]
Details	molar heat capacity at constant pressure [J/K/mol]
5 K, Crystal 4, Vacuum adiabatic calorimetry	0.6485 ± 0.024
10 K, Crystal 4, Vacuum adiabatic calorimetry	4.755 ± 0.093
15 K, Crystal 4, Vacuum adiabatic calorimetry	11.51 ± 0.19
20 K, Crystal 4, Vacuum adiabatic calorimetry	18.36 ± 0.25
25 K, Crystal 4, Vacuum adiabatic calorimetry	24.35 ± 0.27
30 K, Crystal 4, Vacuum adiabatic calorimetry	29.52 ± 0.26
31 K, Crystal 3, Vacuum adiabatic calorimetry	30.48 ± 0.26
31 K, Crystal 4, Vacuum adiabatic calorimetry	30.48 ± 0.26
35 K, Crystal 3, Vacuum adiabatic calorimetry	33.96 ± 0.22
40 K, Crystal 3, Vacuum adiabatic calorimetry	37.77 ± 0.17
45 K, Crystal 3, Vacuum adiabatic calorimetry	41.08 ± 0.18
50 K, Crystal 3, Vacuum adiabatic calorimetry	44.09 ± 0.2
60 K, Crystal 3, Vacuum adiabatic calorimetry	49.73 ± 0.22
70 K, Crystal 3, Vacuum adiabatic calorimetry	55.13 ± 0.24
80 K, Crystal 3, Vacuum adiabatic calorimetry	60.5 ± 0.27
90 K, Crystal 3, Vacuum adiabatic calorimetry	65.87 ± 0.32
100 K, Crystal 3, Vacuum adiabatic calorimetry	71.25 ± 0.34
110 K, Crystal 3, Vacuum adiabatic calorimetry	76.65 ± 0.37
120 K, Crystal 3, Vacuum adiabatic calorimetry	82.11 ± 0.39
130 K, Crystal 3, Vacuum adiabatic calorimetry	87.63 ± 0.4
140 K, Crystal 3, Vacuum adiabatic calorimetry	93.24 ± 0.42
150 K, Crystal 3, Vacuum adiabatic calorimetry	99.03 ± 0.45
160 K, Crystal 3, Vacuum adiabatic calorimetry	105 ± 0.5
170 K, Crystal 3, Vacuum adiabatic calorimetry	111.2 ± 0.5
180 K, Crystal 3, Vacuum adiabatic calorimetry	117.7 ± 0.6
190 K, Crystal 3, Vacuum adiabatic calorimetry	124.4 ± 0.6
200 K, Crystal 3, Vacuum adiabatic calorimetry	131.5 ± 0.6
210 K, Crystal 3, Vacuum adiabatic calorimetry	138.9 ± 0.6
220 K, Crystal 3, Vacuum adiabatic calorimetry	146.5 ± 0.7
230 K, Crystal 3, Vacuum adiabatic calorimetry	154.9 ± 0.7
240 K, Crystal 3, Vacuum adiabatic calorimetry	164.8 ± 0.7
250 K, Crystal 3, Vacuum adiabatic calorimetry	175.5 ± 0.8
260 K, Crystal 3, Vacuum adiabatic calorimetry	185.9 ± 0.8
270 K, Crystal 3, Vacuum adiabatic calorimetry	195.4 ± 0.8
273.15 K, Crystal 3, Vacuum adiabatic calorimetry	198.1 ± 0.9
280 K, Crystal 3, Vacuum adiabatic calorimetry	203.6 ± 0.9
282.2 K, Crystal 2, Vacuum adiabatic calorimetry	205.2 ± 0.9
282.2 K, Crystal 3, Vacuum adiabatic calorimetry	205.2 ± 0.9
290 K, Crystal 2, Vacuum adiabatic calorimetry	210.6 ± 0.9
298.15 K, Crystal 2, Vacuum adiabatic calorimetry	215.4 ± 0.9
300 K, Crystal 2, Vacuum adiabatic calorimetry	216.5 ± 0.9
309.9 K, Crystal 1, Vacuum adiabatic calorimetry	246.3 ± 1.1
309.9 K, Crystal 2, Vacuum adiabatic calorimetry	221.9 ± 0.9
310 K, Crystal 1, Vacuum adiabatic calorimetry	246.5 ± 1.1
320 K, Crystal 1, Vacuum adiabatic calorimetry	257.5 ± 1.1
330 K, Crystal 1, Large sample (1 g) DSC	279.7 ± 6.9
340 K, Crystal 1, Large sample (1 g) DSC	297 ± 7.2
350 K, Crystal 1, Large sample (1 g) DSC	302.1 ± 7.4
360 K, Crystal 1, Large sample (1 g) DSC	305.2 ± 7.5
370 K, Crystal 1, Large sample (1 g) DSC	305.7 ± 7.5
380 K, Crystal 1, Large sample (1 g) DSC	305.9 ± 7.5
390 K, Crystal 1, Large sample (1 g) DSC	306.1 ± 7.5
391.8 K, Crystal 1, Large sample (1 g) DSC	306.1 ± 7.5

Liquid, Large sample (1 g) DSC
Details	molar heat capacity at constant pressure [J/K/mol]
391.8 K	311.4 ± 7.6
400 K	311.6 ± 7.6
410 K	312 ± 7.6
420 K	312.3 ± 7.6
430 K	312.7 ± 7.7

From the NIST ThermoML archive (doi:10.1016/j.jct.2004.10.005)
